The results in this text go back to patent publication US20220144775A1, “HYDRAZIDE COMPOUND AND KINASE INHIBITOR” (NISSAN CHEMICAL CORPORATION, priority 2019, published 2022).

One assay relates to MDCK cells. The assay can be described thus: Observation of Cyst form with confocal fluorescence microscope. Conditions: 10 μM; β catenin, Phalloidin, DAPI staining; FIG. 1. The assay is classed as cell-based, canine. The procedure:
As for the respective Matrix GFRs containing Cyst cultured in a medium added with DMSO or A-004A (10 μM) and obtained in Experimental Example 3, the cells were washed with PBS (1 mL/well), 4% paraformaldehyde/PBS (manufactured by FUJIFILM Wako Pure Chemical Corporation) was added (1 mL/well) and fixed at room temperature for 20 min. Thereafter, the supernatant was removed, staining buffer [0.2% Triton X-100 (manufactured by Sigma-Aldrich), 0.05% Tween 20 (manufactured by Sigma-Aldrich)-containing PBS] were added at 1 mL/well, stood for 30 min and removed. Penetration buffer (0.5% Triton X-100 (manufactured by Sigma-Aldrich)/PBS) was added at 1 mL/well and incubated at room temperature for 30 min. The supernatant was removed, washed 3 times every 5 min with staining buffer, blocking buffer (1% bovine serum albumin (BSA manufactured by Sigma-Aldrich)/staining buffer) was added at 0.5 mL/well and incubated for 30 min. The supernatant was removed, an anti-β catenin antibody (manufactured by BD Bioscience) diluted 100-fold with blocking buffer was added at 250 μL/well, and the cells were incubated at room temperature for 60 min. […]

The subject of a further assay is YAP. The assay can be described thus: YAP phosphorylation inhibitory action in SKOV3 (HTRF). It counts as cell-based, human. Conditions: 10 μM, 1 hr, non-treatment 100%. Here is the method:
Human ovarian cancer cell line SKOV3 (manufactured by DS Pharma Biomedical Co., Ltd.) was precultured using a 15% FBS-containing McCoy's 5a medium (manufactured by Sigma-Aldrich) (single layer culture). The above-mentioned cells in the logarithmic growth phase were washed with PBS. A 0.25% (w/v) trypsin-1 mmol/L ethylenediaminetetraacetic acid (EDTA) solution (manufactured by FUJIFILM Wako Pure Chemical Corporation) was added and the adherent cells were incubated at 37° C. for 3 min and detached. The above-mentioned medium was added, and the cells were centrifuged and resuspended in the same medium.
According to the method of patent document 1 (WO 2014/017513), a composition of 10% FBS-containing DMEM medium (Phenol-red free, manufactured by FUJIFILM Wako Pure Chemical Corporation) containing 0.015% (w/v) deacylated gellan gum (KELCOGEL CG-LA, manufactured by SANSHO Co., Ltd.) was prepared using FCeM-series Preparation Kit (manufactured by FUJIFILM Wako Pure Chemical Corporation). Then, various cells prepared above were suspended in the above-mentioned medium composition (3D culture conditions) added with deacylated gellan gum or a medium without the addition (2D culture conditions), and seeded on a 50 μL/well (manufactured by Corning Incorporated, a 96 well flat bottom plate, #3585, 2D culture conditions) or 25 μL/well (manufactured by Corning Incorporated, 96 well low adhesion flat bottom plate, #3474) at 100000 cells/well. The plate was allowed to stand at 37° C. in a 5% CO2 incubator, and the compound of the present invention diluted with the medium at 2 or 6 times the final concentration, DMSO, or the medium alone was added to the plate 3 hr after the seeding at 50 μL/well (2D culture conditions) or 5 μL/well (3D culture conditions) to make the final concentration of each compound 10 μM. After culture at 37° C. in a 5% CO2 incubator for 1 hr, the supernatant was aspirated, supplemented Lysis buffer (1-fold concentration, manufactured by Cisbio, YAP-total kit or YAP phospho-S27 kit) (50 μL) was added under 2D culture conditions, and supplemented Lysys buffer (4-fold concentration) (10 μL) was added to the culture supernatant under 3D conditions, and the mixture was stirred by a plate shaker for 30 min. Thereafter, the plate was centrifuged, 16 μL of the supernatant was transferred to a 384-well white plate (Corning, #4512), and each antibody solution (pYAP d2 antibody or Total-YAP d2 antibody, and pYAP Cryptate antibody or Total-YAP Cryptate antibody) included in the kit was added at 4 μL/well in total, and the mixture was allowed to stand at room temperature overnight. As a blank control, pYAP Cryptate antibody or Total-YAP Cryptate antibody alone was added to cells free of stimulation with compound and the mixture was treated in the same manner. The next day, the wavelengths at 665 nm and 615′ nm were measured in the HTRF mode of EnVision (manufactured by PerkinElmer).
The obtained signal was calculated as follows. Ratio=signal (665 nm)/signal (615 nm)×10000, ΔR=Signal(Ratio)−Background fluorescence, and the relative phosphorylated YAP amount or total YAP amount for each compound when ΔR of the compound non-addition group (non-treatment) is 100% is shown in Tables 7 and 8 (2D culture), and Tables 9 and 10 (3D culture). From the results, it was shown that the compound of the present zo invention has a YAP phosphorylation inhibitory action under both 2D and 3D culture conditions.
For orientation: In TR-FRET formats the signal depends on donor and acceptor labels being close together.

In assay [1] the test system is Colitis model administered with dextran sulfate sodium (DSS). Kind of assay: Inflammation suppressive effect on DSS colitis model mouse. The note with it: C57BL/6NCrl mice; 2.5 w/v % DSS drinking water; 50 mg/kg intraperitoneally every 24 hr; day 8; FIG. 3. The assay is classed as in vivo. Here is the method:
Colitis model administered with dextran sulfate sodium (DSS) (manufactured by FUJIFILM Wako Pure Chemical Corporation) was produced as described below. The length of the large intestine is used as a morphological parameter in the evaluation of colitis, and the large intestine shortens according to the degree of inflammation. Therefore, the anti-inflammatory effect of the compound was evaluated by comparing the length of the large intestine. As the Buffer, a 0.5 w/v % methylcellulose aqueous solution (manufactured by FUJIFILM Wako Pure Chemical Corporation) added with Dimethyl sulfoxide (manufactured by FUJIFILM Wako Pure Chemical Corporation) at 1 v/v % was used. It was prepared by suspending compound A-004A in the above-mentioned Buffer at 5 mg/mL. As the mouse, male C57BL/6NCrl, 6-week-old, was purchased from CHARLES RIVER LABORATORIES JAPAN, INC. As drinking water, distilled water or a 2.5 w/v % DSS aqueous solution was freely given. The DSS drinking start date was set as day 1, and the water was given until day 8. Compound A-004A was intraperitoneally administered at 50 mg/kg every 24 hr from day 1. As a negative control, Buffer alone was administered similarly. On day 8, the mouse was dissected, the large intestine was isolated and the length of the large intestine was measured. Conducted in 3-4 cases in each group.

As for `CC/C(=N\NC(=O)C(C)Nc1cccnc1)c1ccc(O)c(C)c1O` (single isomer, unassigned) [A-004A, (E)-N′-(1-(2,4-dihydroxy-3-methylphenyl)propylidene)-2-(pyridin-3-ylamino)propanehydrazide], in the assay on MDCK cells, the Cyst form entry is listed as “Cyst with a normal form was formed”. In the assay with YAP (2D culture conditions), the “phosphorylated YAP amount (%)” value is given as 14% and the “total YAP amount (%)” value was determined as 97%. Further, in the assay on YAP (3D culture conditions), the “phosphorylated YAP amount (%)” value worked out at 11% and the “total YAP amount (%)” value turned out to be 112%. For the same compound, the “length of the large intestine” value in assay [1] was “shortening of the large intestine was suppressed more”.
